Tests used:
[1] = system: Giant foxtail (Setaria fabergi); test: Example 24, Procedure II: Herbicide No. 1 + co-herbicides Nos. 4, 6, 7, 12 with Antidote Nos. 15 and 17-21; type: in vivo
Method: (§1) Containers were filled and compacted with a fumigated silt loam top soil to a depth of about 1.3 cm from the top of the container. A first container was designated as an untreated control, a second container was designated as a herbicide control, and a third container was designated as a herbicide + antidote test container. Each of the containers was seeded with a crop species. A measured amount of herbicide dispersed or dissolved in acetone was applied to a measured quantity of soil. To this same quantity of soil treated with herbicide, there was added a measured amount of antidote dispersed or dissolved in acetone. The quantity of soil treated with the herbicide and antidote was thoroughly mixed to incorporate the herbicide and antidote in the soil uniformly. The seed bed in the third container of soil was covered with the soil treated with the herbicide and antidote and the container was leveled. For each test series, the seed beds of the first and second containers were likewise covered by soil layers. the cover layer of the first container was not treated with herbicide or antidote.
(§2) The containers were then placed on a bench in a greenhouse and sub-irrigated as required for the duration of the test. […] Plant response is measured in terms of percent injury. Antidote efficacy is indicated as the difference in plant injury by the herbicide(s) without the antidote and with the antidote.
(§3) This procedure is the same as Procedure I, but modified in the manner that after incorporation of the chemicals (herbicide and antidote) the containers with the covered seedbed were treated with an initial overhead irrigation equivalent to 0.6 cm rainfall, then subsequently sub-irrigated as required on greenhouse benches.
(§4) In other greenhouse tests, using Procedure II described above, the safening efficacy of Antidote Nos. 15 and 17-21 was evaluated against Herbicide No. 1 in corn in the presence of Giant foxtail (Setaria fabergi) and Velvetleaf (Abutilon theophrasti) as representative annual monocotyledonous and dicotyledonous weeds, respectively.
(§5) Test results are shown in Tables 23A and 23B wherein the indicated plant inhibition represents the average of duplicate replications, with observations being made thirteen (13) days after application of the chemicals. Giant foxtail and Velvetleaf are represented by the symbols "GFT" and "VL", respectively. The data in Table 23A show the test results using the antidotes at 2.24 kg/ha, whereas in Table 23B, the antidotal rate was reduced to 0.56 kg/ha.
(§6) The tests described in Example 23 were duplicated, but in this example a variety of co-herbicides were included to ascertain the efficacy of the antidotes against combinations of Herbicide No. 1 and Herbicides Nos. 4, 6, 7 and 12 as co-herbicides. Test results are shown in Table 24, wherein the antidote application rate was 2.24 kg/ha.

[2] = system: velvetleaf (Abutilon theophrasti); test: as above; type: in vivo
Method: as §1, §2, §3, §4, §5, §6

[3] = Herb. No. 1 0.07 Kg/ha + Co-Herb. No. 4 1.12 Kg/ha + antidote 2.24 Kg/ha
[4] = Herb. No. 1 0.07 Kg/ha + Co-Herb. No. 6 0.14 Kg/ha + antidote 2.24 Kg/ha
[5] = Herb. No. 1 0.07 Kg/ha + Co-Herb. No. 7 0.28 Kg/ha + antidote 2.24 Kg/ha
[6] = Herb. No. 1 0.07 Kg/ha + Co-Herb. No. 12 0.28 Kg/ha + antidote 2.24 Kg/ha
[7] = Herb. No. 1 0.14 Kg/ha + Co-Herb. No. 4 1.12 Kg/ha + antidote 2.24 Kg/ha
[8] = Herb. No. 1 0.14 Kg/ha + Co-Herb. No. 6 0.14 Kg/ha + antidote 2.24 Kg/ha
[9] = Herb. No. 1 0.14 Kg/ha + Co-Herb. No. 7 0.28 Kg/ha + antidote 2.24 Kg/ha
[10] = Herb. No. 1 0.14 Kg/ha + Co-Herb. No. 12 0.28 Kg/ha + antidote 2.24 Kg/ha
[11] = Herb. No. 1 0.28 Kg/ha + Co-Herb. No. 4 1.12 Kg/ha + antidote 2.24 Kg/ha
[12] = Herb. No. 1 0.28 Kg/ha + Co-Herb. No. 6 0.14 Kg/ha + antidote 2.24 Kg/ha
[13] = Herb. No. 1 0.28 Kg/ha + Co-Herb. No. 7 0.28 Kg/ha + antidote 2.24 Kg/ha
[14] = Herb. No. 1 0.28 Kg/ha + Co-Herb. No. 12 0.28 Kg/ha + antidote 2.24 Kg/ha
[15] = Herb. No. 1 0.56 Kg/ha + Co-Herb. No. 4 1.12 Kg/ha + antidote 2.24 Kg/ha
[16] = Herb. No. 1 0.56 Kg/ha + Co-Herb. No. 6 0.14 Kg/ha + antidote 2.24 Kg/ha
[17] = Herb. No. 1 0.56 Kg/ha + Co-Herb. No. 7 0.28 Kg/ha + antidote 2.24 Kg/ha
[18] = Herb. No. 1 0.56 Kg/ha + Co-Herb. No. 12 0.28 Kg/ha + antidote 2.24 Kg/ha

Row | SMILES | % Inhibition GFT [1, 3] [%] | % Inhibition GFT [1, 4] [%] | % Inhibition GFT [1, 5] [%] | % Inhibition GFT [1, 6] [%] | % Inhibition GFT [1, 7] [%] | % Inhibition GFT [1, 8] [%] | % Inhibition GFT [1, 9] [%] | % Inhibition GFT [1, 10] [%] | % Inhibition GFT [1, 11] [%] | % Inhibition GFT [1, 12] [%] | % Inhibition GFT [1, 13] [%] | % Inhibition GFT [1, 14] [%] | % Inhibition GFT [1, 15] [%] | % Inhibition GFT [1, 16] [%] | % Inhibition GFT [1, 17] [%] | % Inhibition GFT [1, 18] [%] | % Inhibition VL [2, 3] [%] | % Inhibition VL [2, 4] [%] | % Inhibition VL [2, 5] [%] | % Inhibition VL [2, 6] [%] | also measured
1 | CC1COc2ccccc2N1C(=O)C(Cl)Cl (centres unmarked) [compound 17] | 55 | 100 | 100 | 99 | 50 | 100 | 100 | 99 | 45 | 98 | 100 | 98 | 70 | 99 | 99 | 100 | 90 | 90 | 85 | 90 | % Inhibition VL [2, 7]: 90%; % Inhibition VL [2, 8]: 90%; % Inhibition VL [2, 9]: 95%; % Inhibition VL [2, 10]: 98%; % Inhibition VL [2, 11]: 90%; % Inhibition VL [2, 12]: 95%; % Inhibition VL [2, 13]: 98%; % Inhibition VL [2, 14]: 98%; % Inhibition VL [2, 15]: 95%; % Inhibition VL [2, 16]: 98%; % Inhibition VL [2, 17]: 98%; % Inhibition VL [2, 18]: 95%
2 | O=C(O)COC(c1ccccc1)c1ccccc1 [compound 19] | 40 | 100 | 99 | 99 | 60 | 100 | 99 | 99 | 45 | 99 | 99 | 100 | 70 | 99 | 99 | 99 | 90 | 90 | 90 | 85 | % Inhibition VL [2, 7]: 95%; % Inhibition VL [2, 8]: 95%; % Inhibition VL [2, 9]: 90%; % Inhibition VL [2, 10]: 85%; % Inhibition VL [2, 11]: 95%; % Inhibition VL [2, 12]: 95%; % Inhibition VL [2, 13]: 95%; % Inhibition VL [2, 14]: 95%; % Inhibition VL [2, 15]: 90%; % Inhibition VL [2, 16]: 99%; % Inhibition VL [2, 17]: 98%; % Inhibition VL [2, 18]: 99%
3 | COC(=O)COC(c1ccccc1)c1ccccc1 [compound 20] | 65 | 100 | 98 | 99 | 40 | 99 | 98 | 100 | 65 | 100 | 100 | 100 | 65 | 100 | 99 | 100 | 90 | 95 | 95 | 90 | % Inhibition VL [2, 7]: 90%; % Inhibition VL [2, 8]: 90%; % Inhibition VL [2, 9]: 90%; % Inhibition VL [2, 10]: 95%; % Inhibition VL [2, 11]: 90%; % Inhibition VL [2, 12]: 98%; % Inhibition VL [2, 13]: 95%; % Inhibition VL [2, 14]: 98%; % Inhibition VL [2, 15]: 95%; % Inhibition VL [2, 16]: 95%; % Inhibition VL [2, 17]: 95%; % Inhibition VL [2, 18]: 98%
4 | CCSC(=O)COC(c1ccccc1)c1ccccc1 [compound 21] | 65 | 100 | 100 | 100 | 60 | 100 | 100 | 99 | 65 | 99 | 98 | 100 | 70 | 100 | 100 | 99 | 90 | 85 | 95 | 90 | % Inhibition VL [2, 7]: 90%; % Inhibition VL [2, 8]: 90%; % Inhibition VL [2, 9]: 90%; % Inhibition VL [2, 10]: 95%; % Inhibition VL [2, 11]: 95%; % Inhibition VL [2, 12]: 95%; % Inhibition VL [2, 13]: 95%; % Inhibition VL [2, 14]: 98%; % Inhibition VL [2, 15]: 90%; % Inhibition VL [2, 16]: 98%; % Inhibition VL [2, 17]: 98%; % Inhibition VL [2, 18]: 98%
